Data on eleven compounds can be found in patent publication US4532255A, “Amidine compounds and anticomplement agent comprising same” (Torii & Co., Ltd., priority 1980, dated 1985).

Where two headings read alike, the source gives them in different places.

The target in one experiment is Plasmin (Homo sapiens, UniProt P00747). As to the kind of experiment: Anti-plasmin activity (hydrolysis of TAME). It counts as biochemical. The conditions noted are these: for IC50: molar concentration inhibiting 50% of TAME hydrolysis, read-out: Plasmin ID50; for inhibition at 10 µM: at 1×10^-5 M, read-out: Plasmin percentage inhibition. As to the method: (§1) The anti-trypsin, anti-plasmin, anti-kallikrein and anti-thrombin activities were determined according to the method of Muramatsu et al. [M. Muramatsu, T. Onishi, S. Makino, Y. Hayashi and S. Fujii, J. of Biochem., 58, 214 (1965)]. […] The compound No. corresponds to the compound number shown in Examples.

The next experiment deals with Kallikrein. Nature of the experiment: Anti-kallikrein activity (hydrolysis of TAME). It counts as biochemical. The conditions noted are these: at 1×10^-5 M.
The test system of experiment [1] is complement mediated hemolysis. Nature of the experiment: Inhibition of complement mediated hemolysis. It counts as cell-based.
Experimental: The principle of this method is based on the fact that hemolysis is caused by the activation of complement, when the latter is added to a complex (immune complex) of erythrocytes and the antibody thereof. The degree of hemolysis varies in proportion to the amount of complement added. Therefore, when a known amount of complement admixed with a C1 esterase inhibitor is used, the hemolysis must be suppressed in proportion to the inhibitory activity.
A further experiment deals with T1, C1r (Homo sapiens, UniProt P00736).
T1 sequence (P00736 464-705 limits assumed): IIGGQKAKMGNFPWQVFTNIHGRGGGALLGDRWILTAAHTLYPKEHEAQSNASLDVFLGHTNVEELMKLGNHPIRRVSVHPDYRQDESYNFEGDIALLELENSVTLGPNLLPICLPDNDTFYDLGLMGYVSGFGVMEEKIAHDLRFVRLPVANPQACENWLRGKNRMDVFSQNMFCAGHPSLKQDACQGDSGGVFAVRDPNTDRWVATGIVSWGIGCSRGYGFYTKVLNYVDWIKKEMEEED
T1 sequence (P00736 18-463 partner limits assumed): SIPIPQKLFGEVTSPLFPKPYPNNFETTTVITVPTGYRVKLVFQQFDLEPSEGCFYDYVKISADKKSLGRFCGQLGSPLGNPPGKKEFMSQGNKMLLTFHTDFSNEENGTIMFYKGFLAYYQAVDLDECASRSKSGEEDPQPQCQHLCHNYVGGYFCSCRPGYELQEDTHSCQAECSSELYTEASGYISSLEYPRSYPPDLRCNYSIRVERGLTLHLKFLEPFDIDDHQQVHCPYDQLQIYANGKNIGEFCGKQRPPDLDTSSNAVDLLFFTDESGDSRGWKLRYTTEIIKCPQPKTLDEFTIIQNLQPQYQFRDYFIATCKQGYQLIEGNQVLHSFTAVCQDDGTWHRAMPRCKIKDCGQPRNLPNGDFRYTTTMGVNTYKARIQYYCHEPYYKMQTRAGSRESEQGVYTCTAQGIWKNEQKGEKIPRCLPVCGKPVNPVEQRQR
Nature of the experiment: Anti-C1 esterase (C1r) activity (hydrolysis of AAME). It counts as biochemical. The conditions noted are these: for IC50: AAME hydrolysis, read-out: Anti-C1 activity, C1r ID50. As for the experimental part:
The anti-Cl esterase ([…]) activity was determined according to the method of Okamura et al. [K. Okamura, M. Muramatsu and S. Fujii, Biochem. Biophys.

The next experiment has as its target Thrombin (Homo sapiens, UniProt P00734). Nature of the experiment: biochemical. The conditions noted are these: for inhibition at 10 µM: at 1×10^-5 M, read-out: Thrombin percentage inhibition; for IC50: molar concentration inhibiting 50% of TAME hydrolysis, read-out: Thrombin ID50. As to the method:
The anti-trypsin, anti-plasmin, anti-kallikrein and anti-thrombin activities were determined according to the method of Muramatsu et al. [M. Muramatsu, T. Onishi, S. Makino, Y. Hayashi and S. Fujii, J. of Biochem., 58, 214 (1965)]. The data summarized in Table 1 are expressed in terms of molar concentration (ID50) of the test compound which inhibits 50% of the activity of each enzyme to hydrolyze TAME (tosylalginine methyl ester). The compound No. corresponds to the compound number shown in Examples.

Another experiment has as its target T2, Trypsin (Bos taurus, UniProt P00760).
T2 sequence (P00760 24-246): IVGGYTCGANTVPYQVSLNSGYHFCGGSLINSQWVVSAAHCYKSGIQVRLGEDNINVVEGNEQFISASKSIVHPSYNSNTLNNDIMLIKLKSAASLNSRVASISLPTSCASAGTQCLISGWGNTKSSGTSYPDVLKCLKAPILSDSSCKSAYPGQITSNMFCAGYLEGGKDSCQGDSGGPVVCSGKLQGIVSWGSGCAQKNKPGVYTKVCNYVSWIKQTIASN
As to the kind of experiment: Anti-trypsin activity (hydrolysis of TAME). It counts as biochemical. The note with it: for IC50: molar concentration inhibiting 50% of TAME hydrolysis, read-out: Trypsin ID50. As to the method: as §1

The target of another experiment is T3, C1s (Homo sapiens, UniProt P09871).
T3 sequence (P09871 438-688 limits assumed): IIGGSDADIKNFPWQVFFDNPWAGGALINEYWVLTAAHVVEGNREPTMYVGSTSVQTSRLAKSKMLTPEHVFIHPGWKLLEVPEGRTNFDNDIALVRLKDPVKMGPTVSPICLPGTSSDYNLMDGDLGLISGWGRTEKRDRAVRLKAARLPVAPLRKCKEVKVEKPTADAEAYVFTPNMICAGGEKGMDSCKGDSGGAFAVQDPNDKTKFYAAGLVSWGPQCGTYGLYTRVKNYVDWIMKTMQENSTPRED
T3 sequence (P09871 16-437 partner limits assumed): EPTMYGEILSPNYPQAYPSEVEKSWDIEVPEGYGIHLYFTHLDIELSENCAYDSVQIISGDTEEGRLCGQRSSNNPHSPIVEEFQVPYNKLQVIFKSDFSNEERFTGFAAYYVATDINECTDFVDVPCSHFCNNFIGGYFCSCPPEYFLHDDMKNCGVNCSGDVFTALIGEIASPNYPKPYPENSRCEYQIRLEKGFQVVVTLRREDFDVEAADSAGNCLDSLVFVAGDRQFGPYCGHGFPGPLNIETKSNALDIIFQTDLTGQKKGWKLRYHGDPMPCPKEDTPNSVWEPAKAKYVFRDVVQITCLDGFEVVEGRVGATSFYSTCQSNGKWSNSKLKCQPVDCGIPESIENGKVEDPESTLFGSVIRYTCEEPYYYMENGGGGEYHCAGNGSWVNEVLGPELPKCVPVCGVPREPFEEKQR
As to the kind of experiment: biochemical. As for the experimental part:
The anti-Cl esterase (Clr, Cls) activity was determined according to the method of Okamura et al. [K. Okamura, M. Muramatsu and S. Fujii, Biochem. Biophys. […] The figures in Table 2 have the following meanings:
Cls: Molar concentration of the test compound which inhibits 50% of the ability of Cls to hydrolyse ATEE (acetyltyrosin ethyl ester).

Setting [2] is: ATEE hydrolysis, read-out: Anti-C1 activity, C1s ID50.

Sequence of Plasmin (P00747 581-810 limits assumed, species assumed): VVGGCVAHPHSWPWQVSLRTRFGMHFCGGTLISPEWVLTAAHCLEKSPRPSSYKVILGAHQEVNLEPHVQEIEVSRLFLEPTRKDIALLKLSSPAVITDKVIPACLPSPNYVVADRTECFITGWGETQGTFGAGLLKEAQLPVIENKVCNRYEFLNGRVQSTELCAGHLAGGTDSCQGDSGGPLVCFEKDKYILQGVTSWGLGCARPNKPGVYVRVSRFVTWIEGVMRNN
Sequence of Plasmin (P00747 97-580 partner limits assumed, species assumed): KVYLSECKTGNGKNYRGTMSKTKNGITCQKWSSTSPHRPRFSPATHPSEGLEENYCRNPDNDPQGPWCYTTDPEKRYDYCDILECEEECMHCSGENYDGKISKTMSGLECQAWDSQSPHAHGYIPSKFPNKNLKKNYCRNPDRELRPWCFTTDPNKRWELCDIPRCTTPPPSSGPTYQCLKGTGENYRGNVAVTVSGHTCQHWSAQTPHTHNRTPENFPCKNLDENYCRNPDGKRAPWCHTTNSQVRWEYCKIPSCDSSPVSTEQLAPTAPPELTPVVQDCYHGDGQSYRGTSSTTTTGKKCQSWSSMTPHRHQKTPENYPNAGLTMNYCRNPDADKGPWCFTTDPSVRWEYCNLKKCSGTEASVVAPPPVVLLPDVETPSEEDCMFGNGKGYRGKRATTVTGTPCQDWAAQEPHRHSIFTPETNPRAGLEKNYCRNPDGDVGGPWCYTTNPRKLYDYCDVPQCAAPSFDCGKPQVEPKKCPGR

As for `CC(=O)Oc1ccc(C(=O)Oc2ccc3cc(C(=N)N)ccc3c2)cc1` [Compound 13], the IC50 amounted to 2 µM at Plasmin, 0.3 µM at C1r, 0.4 µM on Trypsin and 0.3 µM at C1s (setting [2]). In the experiment on Kallikrein, the Kallikrein percentage inhibition is reported as 24%. In addition, the “Inhibition of complement mediated hemolysis (%)” value (shortened to “Inhibition … (%)”) in experiment [1] (1 × 10^-4) was determined as 94%; in experiment [1] (1 × 10^-5), 42%; in experiment [1] (1 × 10^-6), 5%; in experiment [1] (1 × 10^-7), 4%. Also, the inhibition (as a rule, the percentage by which the read-out fell short of the control) at 10 µM at Thrombin is 39%.

For the compound `CCCCOc1ccc(C(=O)Oc2ccc3cc(C(=N)N)ccc3c2)cc1` [Compound 8], the inhibition at 10 µM on Plasmin was determined as 17%; at Thrombin it was 29%. The compound also returned a Kallikrein percentage inhibition with Kallikrein of 43%. Further, the “Inhibition … (%)” value is given as 46% in experiment [1] (1 × 10^-4), 18% in experiment [1] (1 × 10^-5) and 23% in experiment [1] (1 × 10^-6). In addition, the IC50 on C1r was 10 µM; at Trypsin, 0.04 µM; on C1s (setting [2]), 0.4 µM.

Turning to `N=C(N)c1ccc2cc(OC(=O)c3ccc(N)cc3)ccc2c1` [Compound 20, 6-amidino-2-naphthyl 4-aminobenzoate], the inhibition at 10 µM on Plasmin came out at 27%. Moreover, the Kallikrein percentage inhibition with Kallikrein was 31%. In addition, the “Inhibition … (%)” value in experiment [1] (1 × 10^-4) was 95%; in experiment [1] (1 × 10^-5) it was 46%; in experiment [1] (1 × 10^-6) it was 5%; in experiment [1] (1 × 10^-7), 0%. Further, the IC50 is 0.2 µM at C1r, more than 10 µM at Thrombin, 0.06 µM at Trypsin and 0.2 µM on C1s (setting [2]).

With `CSc1ccc(C(=O)Oc2ccc3cc(C(=N)N)ccc3c2)cc1` [Compound 30], the IC50 was found to be 2 µM on Plasmin; 0.5 µM on C1r; 4 µM on Thrombin; 2 µM at Trypsin; 0.3 µM on C1s (setting [2]). In the experiment with Kallikrein, the Kallikrein percentage inhibition is recorded as 41%. Further, the “Inhibition … (%)” value in experiment [1] (1 × 10^-4) turned out to be 14%; in experiment [1] (1 × 10^-5), 90%; in experiment [1] (1 × 10^-6), 40%; in experiment [1] (1 × 10^-7) it was 6%.

For the compound `N#Cc1ccc(C(=O)Oc2ccc3cc(C(=N)N)ccc3c2)cc1` [Compound 19], the IC50 at Plasmin came to 3 µM; on C1r, 4 µM; on Thrombin, 2 µM; at C1s (setting [2]), 8 µM. The compound also showed a Kallikrein percentage inhibition in the experiment on Kallikrein of 11%. Besides, the “Inhibition … (%)” value in experiment [1] (1 × 10^-4) is on record as 98%; in experiment [1] (1 × 10^-5), 86%; in experiment [1] (1 × 10^-6) it was 22%; in experiment [1] (1 × 10^-7), 1%. In addition, the inhibition at 10 µM on Trypsin (at 1×10^-5 M, read-out: Trypsin percentage inhibition) amounted to 47%.

For the compound `N=C(N)c1ccc2cc(OC(=O)c3ccc(Cl)cc3)ccc2c1` [Compound 16], the figures for the IC50 at Plasmin, on Trypsin and at C1s (setting [2]) were 0.5 µM, 3 µM and 0.4 µM, respectively. Moreover, the Kallikrein percentage inhibition in the experiment with Kallikrein came to 31%. The “Inhibition … (%)” value in experiment [1] (1 × 10^-4) came out at 99%; in experiment [1] (1 × 10^-5) it was 77%; in experiment [1] (1 × 10^-6) it was 24%; in experiment [1] (1 × 10^-7), 10%. The inhibition at 10 µM came to 39% on C1r (at 1×10^-5 M, read-out: Anti-C1 activity, C1r percent inhibition) and 38% at Thrombin.

Consider `N=C(N)c1ccc2cc(OC(=O)c3ccc(OCc4ccccc4)cc3)ccc2c1` [Compound 9], for which the inhibition at 10 µM on Plasmin was determined as 48%; at Thrombin, 20%. In the experiment on Kallikrein, this compound had a Kallikrein percentage inhibition of 19%. Also, on Trypsin, the IC50 stood at 0.04 µM.

Turning to `N=C(N)c1ccc2cc(OC(=O)c3ccc(F)cc3)ccc2c1` [Compound 15], the IC50 was found to be 1 µM at Plasmin, 2 µM at Thrombin, 3 µM at Trypsin and 0.3 µM against C1s. The same compound displayed a Kallikrein percentage inhibition in the experiment with Kallikrein of 38%. The “Inhibition … (%)” value was found to be 98% in experiment [1] (1 × 10^-4), 89% in experiment [1] (1 × 10^-5), 23% in experiment [1] (1 × 10^-6) and 2% in experiment [1] (1 × 10^-7).

In the case of `COc1ccc(C(=O)Oc2ccc3cc(C(=N)N)ccc3c2)cc1` [Compound 7], the IC50 on Plasmin was 3 µM; on C1r, 0.1 µM; at Thrombin it was 3 µM; at C1s (setting [2]), 0.2 µM. In the experiment on Kallikrein, this compound came in with a Kallikrein percentage inhibition of 46%. Moreover, the “Inhibition … (%)” value came to 51% in experiment [1] (1 × 10^-4), 78% in experiment [1] (1 × 10^-5), 21% in experiment [1] (1 × 10^-6) and 0% in experiment [1] (1 × 10^-7).

With `N=C(N)c1ccc2cc(OC(=O)c3ccc(S(N)(=O)=O)cc3)ccc2c1` [Compound 29], the IC50 worked out at 2 µM at Plasmin, 2 µM on Thrombin and 10 µM at Trypsin. The compound further gave a Kallikrein percentage inhibition with Kallikrein of 42%.

`N=C(N)c1ccc2cc(OC(=O)c3ccc(Br)cc3)ccc2c1` [Compound 17]: the IC50 at Plasmin was 2 µM; on C1r, 0.7 µM; at Trypsin, 4 µM; on C1s (setting [2]), 0.5 µM. For the same compound, the Kallikrein percentage inhibition in the experiment on Kallikrein is on record as 23%. Further, the “Inhibition … (%)” value in experiment [1] (1 × 10^-4) is listed as 98%; in experiment [1] (1 × 10^-5) it was 72%; in experiment [1] (1 × 10^-6), 9%; in experiment [1] (1 × 10^-7), 0%.
